# Data from patent US20230143751A1, “Aromatic Compound And Use Thereof In Preparing Antineoplastic Drugs” (Shanghai Zheye Biotechnology Co. Ltd., priority 2020, published 2023).
# Read-outs that look alike come from different tables or passages of the source.
# Legend:
# NCI-H358 cells = assay: Cell proliferation activity of NCI-H358 by CellTiter-Glo reagent; type: cell-based
# Method in brief: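 NCI-H358 cells seeded at 2000–3000 per well and grown overnight at 37° C, 5% CO2 before compound exposure. Viability read by CellTiter-Glo luminescence; IC50 from curve fitting.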
# [1] = Preliminary safety test, 5-day escalating oral dosing in Balb/c mice; type: in vivo
# Procedure: Test samples: Compound 3-2, Compound 3-6, Compound 3-12M, Compound 3-20, and Compound 4-8.
# Animal species and number: Balb/c; 6 animals per group (half male and half female).
# Administration mode: oral administration by gavage.
# Animal grouping and administration dose: vehicle blank group, Compound 3-2 group (200 mg/kg, 400 mg/kg, 800 mg/kg), Compound 3-6 group (200 mg/kg, 400 mg/kg, 800 mg/kg), Compound 3-12M group (200 mg/kg, 400 mg/kg, 800 mg/kg), Compound 3-20 group (200 mg/kg, 400 mg/kg, 800 mg/kg), Compound 4-8 group (200 mg/kg, 400 mg/kg, 800 mg/kg).
# Administration frequency: once a day for 5 days.
# General clinical observations were performed 2 times a day (once in the morning and once in the afternoon) during the test period. Death, morbidity, respiration, secretions, feces, and diet, drinking situation and so on were observed, and the changes in body weight of the mice during the administration period were recorded. The animals in each group were euthanized after the administration, and all animals were dissected and subjected to gross observation.
# [2] = test system: MIA PaCa-2-derived xenograft tumor; assay: Pharmacodynamics test of MIA PaCa-2-derived xenograft tumor model in nude mice (test 6); type: in vivo
# Procedure: Animal species and number: Balb/c Nude; 6 animals per group.
# Test samples: Compound 3-2, Compound 3-6, Compound 3-20, Compound 3-12M.
# Test groups: blank solvent control group; Compound 3-2 (10 mg/kg, QD×15 days), Compound 3-6 (10 mg/kg, QD×15 days), Compound 3-20 (10 mg/kg, QD×15 days), Compound 3-12M (10 mg/kg, QD×15 days).
# Animal model establishment: MIA paca-2 tumor cells in logarithmic growth phase were cultured in vitro and collected, and inoculated subcutaneously into the right back of nude mice at a quantity of 5×10^6 cells/each. When the tumor volume reached 150-300 mm^3, the tumor-bearing nude mice were randomly grouped. Subsequently, the animals in each group were administered, and the day of the first administration was defined as day 1 of the test.
# (§1) Administration route and frequency: oral administration by gavage; once a day.
# (§2) General state observation: observation time and frequency: once a day; observation indexes or contents: including but not limited to administration location, appearance and signs, general behavioral activities, mental status, death and other abnormal performance of the animals. The animals were euthanized at the end of the test.
# Tumor volume calculation: V=½×long diameter×short diameter^2 (mm^3). Tumor growth inhibition rate TGI (%) is used to evaluate the tumor inhibition efficacy of the compounds. TGI (%)=[1−(mean tumor volume in treatment group at the end of administration−mean tumor volume in treatment group at the beginning of administration)/(mean tumor volume in control group at the end of administration−mean tumor volume in control group at the beginning of administration)]×100%.
# KRAS G12C = KRAS G12C (Homo sapiens, UniProt P01116, G12C); assay: Effect on KRAS(G12C) enzyme activity (KRAS G12C/c-Raf binding, Eu/d2 energy transfer); type: biochemical
# Chain of KRAS G12C (P01116 1-188 isoform P01116-2 G12C): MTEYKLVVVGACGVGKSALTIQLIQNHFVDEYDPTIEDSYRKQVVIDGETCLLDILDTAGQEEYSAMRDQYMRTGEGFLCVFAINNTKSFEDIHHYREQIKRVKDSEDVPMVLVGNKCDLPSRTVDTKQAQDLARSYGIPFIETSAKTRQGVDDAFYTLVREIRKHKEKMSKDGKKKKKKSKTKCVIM
# Procedure: Compound stock solution was taken, and the test compound was subjected to gradient elution in DMSO. The above diluted compound was added into a quantitative volume of enzyme reaction buffer and subjected to oscillation on a microplate oscillator for 20 min.
# 4 μL of enzyme was transferred to a 384-well reaction plate. 1 μL of the test compound was added into the 384-well reaction plate. The plate was sealed with sealing film, and the reaction plate with the compound was centrifuged at 1000 rpm for 1 min and incubated for 60 min. 5 μL of a mixture of substrate and antibody was transferred to the 384-well reaction plate. The plate was sealed with sealing film, then centrifuged at 1000 rpm for 1 min and incubated for 120 min at room temperature.
# Ratiopositive control: average value of the ratios of 10 positive control wells; Rationegative control: average value of the ratios of 10 negative control wells.
# [3] = test system: NCI-H358-derived xenograft tumor; assay: Pharmacodynamics study of H358-derived xenograft tumor model (test 9); type: in vivo, nude mice; conditions: 3-12M 20 and 100 mg/kg, ARS1620 100 mg/kg, i.g., QD×28 days
# Procedure: Animal species and number: Balb/c Nude; 10 animals per group.
# Test samples: Compound ARS1620 (the representative inhibitor targeting KRAS G12C tumor
# target, acquired by purchase) and Compound 3-12M.
# Test groups: blank solvent control group;
# Compound ARS1620 (100 mg/kg, i.g., QD×28 days);
# Compound 3-12M (20 mg/kg, i.g., QD×28 days);
# Compound 3-12M (100 mg/kg, i.g., QD×28 days).
# NCI-H358 tumor cells in logarithmic growth phase were cultured in vitro and collected, and inoculated subcutaneously into the right back of nude mice at a quantity of 5×10^6 cells/each. When the tumor volume reached 150˜300 mm^3, the tumor-bearing nude mice were randomly grouped. Subsequently, the animals in each group were administered, and the day of the first administration was defined as day 1 of the test.
# as §1, §2
# Tumor volume calculation: V=½×long diameter×short diameter^2 (mm^3).
# [4] = target: T1, human-derived MDR1 (MDR1 coding P-gp) transporter protein (Homo sapiens, UniProt P08183); assay: Transport effect of transporter MDR1 (vesicle uptake, P-gp substrate assessment); type: in vitro ADME; conditions: vesicles expressing human-derived MDR1, 37° C.
# T1 construct: expressed in transfected cells; host or cells: membrane vesicles expressing human MDR1
# T1 sequence (P08183 whole entry): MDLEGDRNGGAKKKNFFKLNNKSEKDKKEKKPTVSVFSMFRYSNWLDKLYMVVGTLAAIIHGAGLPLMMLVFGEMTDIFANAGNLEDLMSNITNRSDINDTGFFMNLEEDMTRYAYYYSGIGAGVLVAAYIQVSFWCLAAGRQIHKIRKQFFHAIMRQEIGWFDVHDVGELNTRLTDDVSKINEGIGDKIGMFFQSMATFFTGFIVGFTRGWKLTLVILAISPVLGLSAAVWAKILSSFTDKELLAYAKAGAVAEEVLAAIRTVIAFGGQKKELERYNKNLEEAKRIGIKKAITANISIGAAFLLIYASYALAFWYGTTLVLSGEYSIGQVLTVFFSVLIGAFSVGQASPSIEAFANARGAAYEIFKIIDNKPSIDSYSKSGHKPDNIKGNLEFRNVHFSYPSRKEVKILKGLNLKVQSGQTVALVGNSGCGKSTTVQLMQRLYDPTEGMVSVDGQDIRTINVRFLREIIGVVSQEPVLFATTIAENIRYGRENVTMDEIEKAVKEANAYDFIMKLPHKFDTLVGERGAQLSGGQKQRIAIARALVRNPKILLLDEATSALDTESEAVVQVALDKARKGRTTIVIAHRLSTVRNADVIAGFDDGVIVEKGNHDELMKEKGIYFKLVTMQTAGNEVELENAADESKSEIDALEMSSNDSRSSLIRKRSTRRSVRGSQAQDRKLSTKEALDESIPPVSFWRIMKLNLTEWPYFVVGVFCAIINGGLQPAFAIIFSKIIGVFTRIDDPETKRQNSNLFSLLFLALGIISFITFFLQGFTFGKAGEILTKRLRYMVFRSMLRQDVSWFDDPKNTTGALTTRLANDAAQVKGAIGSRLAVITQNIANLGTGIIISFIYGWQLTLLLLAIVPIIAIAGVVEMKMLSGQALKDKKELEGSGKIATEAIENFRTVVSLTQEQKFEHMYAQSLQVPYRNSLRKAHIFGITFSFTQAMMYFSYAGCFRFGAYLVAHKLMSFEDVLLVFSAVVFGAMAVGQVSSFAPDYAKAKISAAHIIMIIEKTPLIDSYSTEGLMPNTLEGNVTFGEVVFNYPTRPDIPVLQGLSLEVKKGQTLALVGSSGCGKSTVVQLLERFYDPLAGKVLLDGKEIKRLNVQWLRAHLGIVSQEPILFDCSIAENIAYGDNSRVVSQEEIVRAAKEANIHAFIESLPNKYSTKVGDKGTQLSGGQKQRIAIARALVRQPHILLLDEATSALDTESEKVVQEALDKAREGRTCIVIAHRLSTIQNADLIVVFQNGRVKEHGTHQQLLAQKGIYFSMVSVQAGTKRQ
# Procedure: For this test, fluorescein and N-methylquinidine were used as the probe substrates in positive control group. ATP-containing test sample or positive control samples were prepared and pre-incubated with MDR1 vesicles at 37° C. After the pre-incubation, the two kinds of samples were mixed and co-incubated at 37° C. The samples were then transferred to a 96-well filter plate, and washed by suction filtration. The vesicles on the filter plate were lysed by using 80% of methanol, and then centrifuged to collect the filtrate. The filtrate was added with pre-cooled methanol containing internal standard. After the centrifugation, the obtained supernatant was taken and the test sample or positive control samples were detected.
smiles,measurement,setting,value
[2H]C([2H])=Cc1cccc(F)c1-c1nc2c(cc1Cl)c(N1CCN(C(=O)C=C)C[C@@H]1C)nc(=O)n2-c1c(C)ccnc1C(C)C [Compound 3-12M],anti-cell proliferation activity against KRAS G12C mutant type cells NCI-H358 (in words),"NCI-H358 cells; 72 h, CellTiter-Glo",significant anti-cell proliferation activity
same,IC50,"NCI-H358 cells; Homo sapiens, NCI-H358, 72 h, 72 h, CellTiter-Glo, test 3, read-out: IC50 value of cell proliferation inhibitory activity of NCI-H358",< 50 nM
same,cell proliferation inhibitory activity on NCI-H358 compared with the corresponding compound with axial chiral S configuration (in words),NCI-H358 cells; NCI-H358,significantly better
same,cell proliferation inhibitory activity of R-configuration compound relative to the corresponding axial chiral S-configuration compound,"NCI-H358 cells; NCI-H358, 3-12M versus 3-12P",more than 5 times
same,cell proliferation inhibitory activity of NCI-H358 compared with AMG510 (in words),NCI-H358 cells; test 8,better than AMG510
same,IC50,"NCI-H358 cells; test 8, method of test 3, read-out: IC50 of proliferation inhibitory activity of the compound on NCI-H358 cell line",8 nM
same,MTD at 5 days,"[1]; both sexes, mouse, in vivo, oral gavage, 5 days, initially suggested, read-out: maximum tolerated dose",> 800 mg/kg
same,"water and food intake, activity and body weight during the administration period (in words)","[1]; oral gavage once a day for 5 days, 200 to 800 mg/kg",no significant abnormality was showed
same,inhibition effect on the growth of subcutaneously transplanted tumors derived from pancreatic cancer MIA paca-2 cells in nude mice (in words),[2]; 10 mg/kg QD×15 days,significant inhibition effect
same,tumor inhibition rate compared with Compound 3-20 (in words),[2]; 10 mg/kg QD×15 days,higher than that of Compound 3-20
same,Tumor inhibition rate (%),"[2]; MIA PaCa-2 xenograft, nude mice, 10 mg/kg oral gavage QD×15 days",+++ (“+++” represents a tumor inhibition rate of >80%)
same,inhibitory activity on KRAS G12C enzyme compared with AMG510 (in words),KRAS G12C,remarkable better
same,inhibitory activity on tumor growth in vivo compared with ARS1620 (in words),[3],significantly better than that of ARS1620
same,substrate for P-gp (in words),[4],not a substrate for P-gp
